Measured values from patent publication US9200269B2, “β-glucuronidase inhibitor” (priority 2007, dated 2015).

How the values were obtained:
[1] = Urine catching pad urine addition test, urine odor intensity; design: species or system human; conditions: 30° C.
Experimental: Sensory evaluation of odor was performed by six panelists, the evaluation was based on a six-level odor intensity indication method in which the odor intensity was indicated with an evaluation score of 0 to 5. In the evaluation score, “0” indicates no odor, “1” indicates odor which can be slightly perceived (detection threshold), “2” indicates odor which can be perceived to be urine odor but is weak (perception threshold), “3” indicates odor which can be easily perceived to be urine odor, “4” indicates strong urine odor, and “5” indicates extreme urine odor. The odor intensity was determined at an interval of 0.5.
Specifically, the urine catching pad was prepared by replacing only a water-absorbent polymer in the commercially available urine catching pad “Relief urine catching pad safe absorption (Anshin-Kyusyu)” (manufactured by Kao Corporation) with a water-absorbent polymer wherein the β-glucuronidase inhibitor of the present invention was added. The added amount of the inhibitor to the water-absorbent polymer was 1 wt. % with respect to the water-absorbent polymer, and was equivalent to 1.5 g/m^2 with respect to the urine catching pad.
A urine addition test was performed by using test pieces having dimensions of 19 cm by 7 cm being cut out from the urine catching pad, and using a test piece containing no β-glucuronidase inhibitor as a blank. The test was performed as follows: 30 g of human urine (a mixture of urine from five humans) were added to these test pieces cut out from the urine catching pad, and the urine odor intensity after 1 hour, after 24 hours, and after 48 hours under preservation at 30° C. was evaluated by five panelists based on the six-level odor intensity indication method as described in the item (2) of Reference Example 2.

[2] = target: T1, β-glucuronidase Type VII-A derived from Escherichia coli (Escherichia coli, UniProt P05804); experiment: Inhibition of β-glucuronidase activity (PNPG substrate, absorbance at 400 nm); format: biochemical; conditions: 1.6 units/mL enzyme, 37° C., 2 hours, pH 6.8
T1 construct: purchased Sigma-Aldrich Corporation
Experimental: 100 μL of a 2 mM PNPG aqueous solution, 40 μL of a 0.5 M phosphate buffer (pH 6.8), 38 μL of ion exchanged water and 2 μL of a 10 or 1 wt % dipropylene glycol (DPG) solution of various compounds or plant extracts were mixed in a bottle γ-ray sterilized in advance, and subsequently 20 μL of a β-glucuronidase aqueous solution adjusted to 16 units/mL was added, in order to allow the enzyme to react in a thermostat bath at 37° C. for 2 hours. Further, in the case of some of compounds, in addition to the above steps, the same experiment was performed using a 0.1 wt % DPG solution as well. As a result, the concentrations of the test compounds and plant extracts in the reaction solution were adjusted to 0.1, 0.01 and 0.001 wt %, respectively. Further, a product prepared by adding DPG in place of the above-mentioned compounds and plant extracts was used as a control, and a product prepared by adding ion exchanged water in place of an enzyme solution was used as a blank for each sample and control, and the respective products were allowed to react for 2 hours in the same manner. It should be noted that the plant extract sample was used as a solvent extract.
The above-mentioned reaction solution was diluted with a 0.2 M glycine buffer (pH 10.4) and measured for its absorbance at a wavelength of 400 nm. The relative activity inhibition rate of a β-glucuronidase was determined by using the obtained measurement value in accordance with the following equation. Absorbance change of control=Absorbance of control−Absorbance of blank for each control Absorbance change of sample=Absorbance of sample−Absorbance of blank for each sample Activity inhibition rate (%)=[(Absorbance change of control−Absorbance change of sample)/Absorbance change of control]×100

[3] = test system: β-glucuronidase activity derived from microbial cells grown in the putrefied urine; experiment: Inhibition of β-glucuronidase activity derived from urine putrefying microbial cell (putrefied urine supernatant, PNPG); format: biochemical; conditions: 0.01 wt % in reaction solution; room temperature, 24 hours
Experimental: A putrefied urine product, which was prepared by collecting 20 mL of a urine sample, dispensing the sample in a bottle which had been preliminarily subjected to γ-ray sterilization without performing any microbe removing operation and storing the resultant at room temperature for 7 days, was used. 1 mL of the putrefied urine was centrifuged at 10,000 rpm for 5 minutes, and separated into a microbial cell and a supernatant. The precipitated microbial cell was suspended in 0.5 mL of saline. The supernatant was subjected to sterilizing through a 0.2-μm filter.
250 μL of a 2 mM PNPG aqueous solution, 100 μL of a 0.5 M phosphate buffer (pH 6.8), […] of a 10 wt % 8-cyclohexadecen-1-one DPG solution and 100 μL of ion exchanged water were mixed in a bottle γ-ray sterilized in advance, and subsequently 50 μL of the putrefied urine supernatant sample in Reference Example 3 were added. The mixture was allowed to react at room temperature. […]
The above-mentioned reaction solution immediately after the start of the reaction and after 24 hours of reaction was diluted with a 0.2 M glycine buffer (pH 10.4) and measured for its absorbance at a wavelength of 400 nm. A value obtained by subtracting the absorbance immediately after the start from the absorbance after 24 hours of reaction was used as an index of a β-glucuronidase activity.

[4] = six-level score 0 to 5, average of five panelists, inhibitor 1 wt. % of water-absorbent polymer, 30 g human urine

T1 sequence (P05804 whole entry): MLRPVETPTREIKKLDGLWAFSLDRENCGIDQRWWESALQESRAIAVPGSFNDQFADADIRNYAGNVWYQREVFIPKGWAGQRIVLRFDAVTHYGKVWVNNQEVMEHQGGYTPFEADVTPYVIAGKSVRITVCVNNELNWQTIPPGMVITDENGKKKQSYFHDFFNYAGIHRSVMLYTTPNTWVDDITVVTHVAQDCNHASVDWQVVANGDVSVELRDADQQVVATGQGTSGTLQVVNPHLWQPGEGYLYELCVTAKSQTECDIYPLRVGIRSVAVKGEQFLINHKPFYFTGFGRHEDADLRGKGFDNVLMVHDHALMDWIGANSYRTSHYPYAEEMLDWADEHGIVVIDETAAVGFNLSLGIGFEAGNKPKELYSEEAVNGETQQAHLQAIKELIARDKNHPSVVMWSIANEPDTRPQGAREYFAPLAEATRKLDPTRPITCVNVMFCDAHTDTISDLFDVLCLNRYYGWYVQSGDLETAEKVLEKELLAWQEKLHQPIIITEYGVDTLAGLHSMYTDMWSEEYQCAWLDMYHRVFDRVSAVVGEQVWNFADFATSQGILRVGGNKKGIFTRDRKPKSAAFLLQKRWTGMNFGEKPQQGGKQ

SMILES: O=C1CCCCCCC=CCCCCCCC1 [8-Cyclohexadecen-1-one, 8-cyclohexadecen-1-one]
- Suppression of the increase of urine odor in urine catching pad compared to the blank (result in words) ([1]; after 24 or 48 hours as stated): even after 48 hours, was confirmed
- Urine odor intensity After 1 hour [1, 4]: 1.3
- Urine odor intensity After 24 hours [1, 4]: 1.5
- Urine odor intensity After 48 hours [1, 4]: 1.9
- Inhibition rate (%) Concentration 0.001% ([2]; 0.001 wt % in reaction solution): 95.8%
- inhibition at 0.01 wt % ([2]; 0.01 wt % in reaction solution, read-out: Inhibition rate (%) Concentration 0.01%): 99.9%
- inhibition at 0.1 wt % ([2]; 0.1 wt % in reaction solution, read-out: Inhibition rate (%) Concentration 0.1%): 100%
- β-glucuronidase activity of putrefied urine supernatant (result in words, FIG. 4) [3]: suppressed the β-glucuronidase activity
